Molecular target: T1, wtKRAS/RAF1 (Homo sapiens, UniProt P01116)
T1 construct: KRAS (1-169) proteins were expressed in E. coli at 18° C; His6-MBP (N, cleaved yes); made in house; host or cells: E. coli
Experiment: Protein-protein interaction (PPI) HTRF assay w.t.KRAS/RAF1
Type: binding
Procedure: Biotinylated KRAS wt and KRAS G12DNV proteins were expressed and purified in conditions similar to those previously reported (Tran, et al., 2021) (Zhang, et al., 2020). Briefly, KRAS (1-169) proteins were expressed in E. coli at 18° C. with an upstream TEV cleavage site (ENLFYQS) followed an Avi tag sequence ([…]). KIRAS expression constructs contained both a His6 and maltose-binding protein (MBP) tags at the N-terminus for Ni-NTA column purification prior to overnight TEV cleavage and MBP column purification. The avi-tagged NRAS expression construct contained both a His6 tag and SUMO cleavage sige at the N-terminus for Ni-NTA column purification followed by His-ULP1 digestion overnight. All avi-tagged RAS proteins were dialyzed into buffer containing ATP, biotin, and BirA followed by purification over a second Ni-NTA column and then run over a size exclusion HiLoad™ 26/600 Superdex™ column in 20 mM HEPES, pH 7.5, 300 mM NaCl, 5 mM MgCl2, and 1 mM TCEP. Fractions containing the protein of interest were pooled, concentrated, and confirmed by intact mass spectrometry. To prepare ‘GTP’ loaded KRAS and NRAS, biotinylated KRAS or NRAS was nucleotide exchanged from GDP-bound protein to GppNHp-bound (Jena Biosciences, NU-401-50) protein in the presence of alkaline phosphatase and excess GppNHp as previously described and the resulting nucleotide content was confirmed by HPLC reverse phase analytical chromatography (Donohue, et al., 2019) (Tran, et al., 2021).
His-tagged RAF1 (52-131) was similarly expressed in E. coli at 18° C. overnight with an upstream TEV cleavage site. His-tagged RAF1 expression construct contained both a His6 and MBP tags at the N-terminus for Ni-NTA column purification followed by MBP-tagged TEV digestion overnight. RAF1 protein samples were further purified over a MBP column followed by a Ni-NTA column and a second MBP column. The fractions containing the protein of interest were pooled, concentrated, and further purified over a HiLoad™ 16/600 Superdex™ 75 pg size exclusion column into 20 mM HEPES, pH8.0, 200 mM NaCl, 5 mM TCEP.
When RAS proteins are in the active GTP-bound conformation, they bind the effector protein RAF1 at the N-terminus Ras-binding domain (RBD, residues 52-131) (Tran, et al., 2021). Homogenous time resolved fluorescence (HTRF) was used to monitor the interaction between wt or mutant KRAS and RAF1 or wt NRAS and RAFT. Compounds were assayed in the presence of KRAS G12D/V and RAF1 versus wt KRAS to assess activity against mutant and w.t. KRAS. Similarly, compounds were then assayed in the presence of w.t. NRAS and RAF1 to assess RAS isoform selectivity. In all assay formats, His-tagged RAF1 protein was incubated with the HTRF donor, anti-6His Tb Cryptate gold (Cisbio 61DB10RDF), and biotinylated RAS proteins were incubated with the HTRF acceptor, streptavidin-d2 (CisBio 610SADLA). The intensity of the fluorescence signal emitted is proportional to binding between the two proteins. The donor solution was prepared by mixing 16 nM His-tagged RAF1 in protein dilution buffer with 1:100 anti-6His Tb cryptate in PPI-Terbium detection buffer. 16 nM biotinylated RAS protein was diluted into protein dilution buffer (50 mM Tris-HCl pH 7.5, 150 mM NaCl, 0.1 mM MgCl2, 1 mM TCEP, 0.005% Tween20) and mixed with 1:2000 Streptavidin-d2 diluted in PPI-Terbium detection buffer (CisBio 61DB10RDF). 50× compound in DMSO was mixed with 16 nM KRAS-acceptor solution and incubated for 30 minutes at room temperature. After compound pre-incubation with KRAS, the RAF1 donor solution was added to the KRAS-acceptor solution and incubated for 1 hour at room temperature. The fluorescence signal emitted was monitored at 665 nm and 615 nm using an Envision multimode plate reader. The HTRF ratio (665/615) was calculated and normalized to 0% inhibition in the absence of compound and 100% inhibition in the presence of untagged RAF1 protein. […]

T1 sequence (P01116 1-169 isoform P01116-2): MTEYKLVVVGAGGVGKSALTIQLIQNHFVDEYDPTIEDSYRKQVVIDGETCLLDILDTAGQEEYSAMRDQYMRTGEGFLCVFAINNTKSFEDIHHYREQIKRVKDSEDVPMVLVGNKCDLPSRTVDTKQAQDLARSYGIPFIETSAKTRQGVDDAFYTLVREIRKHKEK

For `CN(C)C(=O)c1nn2c(c1Cl)CN(c1nc(OC[C@@]34CCCN3C[C@H](F)C4)nc3c1CN(C)[C@@]1(CCc4ccccc41)C3)CCC2` [Compound 53, 3-chloro-5-[(7S)-2-[[(2R,8S)-2-fluoro-1,2,3,5,6,7-hexahydropyrrolizin-8-yl]methoxy]-6-methyl-spiro[5,8-dihydropyrido[4,3-d]pyrimidine-7,1′-indane]-4-yl]-N,N-dimethyl-4,6,7,8-tetrahydropyrazolo[1,5-a][1,4]diazepine-2-carboxamide], the IC50 was 10 to 100 µM.

`C#Cc1c(C(=O)N(C)C)nn2c1CN(c1nc(OC[C@@]34CCCN3C[C@H](F)C4)nc3c1CN(C)[C@@]1(CCCc4ccccc41)C3)CCC2` [Compound 81, 3-ethynyl-5-[(7S)-2-[[(2R,8S)-2-fluoro-1,2,3,5,6,7-hexahydropyrrolizin-8-yl]methoxy]-6-methyl-spiro[5,8-dihydropyrido[4,3-d]pyrimidine-7,1′-tetralin]-4-yl]-N,N-dimethyl-4,6,7,8-tetrahydropyrazolo[1,5-a][1,4]diazepine-2-carboxamide] gave an IC50 of 10 to 100 µM.

With `Cc1nnc(-c2nn3c(c2Cl)CN(c2nc(OC[C@@]45CCCN4C[C@H](F)C5)nc4c2CN(C)[C@@]2(CCCc5ccccc52)C4)CCC3)n1C` [Compound 90, (7S)-4-[3-chloro-2-(4,5-dimethyl-1,2,4-triazol-3-yl)-4,6,7,8-tetrahydropyrazolo[1,5-a][1,4]diazepin-5-yl]-2-[[(2R,8S)-2-fluoro-1,2,3,5,6,7-hexahydropyrrolizin-8-yl]methoxy]-6-methyl-spiro[5,8-dihydropyrido[4,3-d]pyrimidine-7,1′-tetralin]] the IC50 was greater than 100 µM.

Work on `CN(C)C(=O)c1nn2c(c1Cl)CN(c1nc(OC[C@@]34CCCN3C[C@H](F)C4)nc3c1CN(C)[C@@]1(CCc4cccc(O)c41)C3)CCC2` [Compound 96, 3-chloro-5-[(7S)-2-[[(2R,8S)-2-fluoro-1,2,3,5,6,7-hexahydropyrrolizin-8-yl]methoxy]-7′-hydroxy-6-methyl-spiro[5,8-dihydropyrido[4,3-d]pyrimidine-7,1′-indane]-4-yl]-N,N-dimethyl-4,6,7,8-tetrahydropyrazolo[1,5-a][1,4]diazepine-2-carboxamide] yielded an IC50 greater than 100 µM.
